Experimental data published in patent publication US10183949B2, “Pyrimidinone derivative having autotaxin-inhibitory activity” (The University of Tokyo, priority 2014, dated 2019).

What follows are molecules tested against T1, Human autotaxin enzyme (Homo sapiens, UniProt Q13822) (assay: Evaluation of autotaxin inhibitor, 18:0 Lyso PC / choline assay (Test Example 2)). Conditions: human autotaxin enzyme, 18:0 Lyso PC substrate, choline assay, room temperature 2 hours; read-out: Inhibitor activity (IC50).
T1 construct: purchased R&D System
Type: biochemical
In short: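 Inhibition derived from concentration-dependent curves, scaled between no-compound (0%) and no-enzyme (100%) wells. Choline generated from 18:0 Lyso PC (200 μM stock) by human enzyme over 2 h at room temperature (Tris-HCl pH 7.5, NaCl, MgCl2, Triton X-100) read as resorufin fluorescence, 531/598 nm, after choline oxidase-peroxidase coupling.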

| SMILES | IC50 |
| --- | --- |
| O=C(Cn1c(CCCC(F)(F)F)nc(-c2ccc(C(F)(F)F)cc2)cc1=O)NCCc1nnc(-c2ccccc2)o1 [Compound I-0368] | 10 to 100 nM |
| O=C(Cn1c(CCCC(F)(F)F)nc(-c2ccc(C(F)(F)F)cc2)cc1=O)N1CCC(O)(Cc2ccccc2)CC1 [Compound I-0369] | 100 to 1000 nM |
| CCS(=O)(=O)N1CCC(NC(=O)Cn2c(CCCC(F)(F)F)nc(-c3ccc(C(F)(F)F)cc3)cc2=O)CC1 [Compound I-0370] | 100 to 1000 nM |
| Cc1nc(-c2ccc(Cl)cc2NC(=O)C(C)(C)C)cc(=O)n1CCO [Compound I-0371] | ≥ 1000 nM |
| COC(=O)Nc1cc(C#N)ccc1-c1cc(=O)n(CC(=O)NC(C)(C)C)c(C)n1 [Compound I-0372] | 10 to 100 nM |
| COC(=O)Nc1cc(C#N)ccc1-c1cc(=O)n(CC(=O)OC(C)(C)C#N)c(C)n1 [Compound I-0373] | 10 to 100 nM |
| COC(=O)Nc1cc(C#N)ccc1-c1cc(=O)n(CC(=O)N(C)C(C)(C)C)c(C)n1 [Compound I-0374] | 10 to 100 nM |
| COC(=O)Nc1cc(Cl)ccc1-c1cc(=O)n(Cc2cccc(C(=N)NO)c2)c(C)n1 [Compound I-0377] | 10 to 100 nM |
| COC(=O)Nc1cc(C#N)ccc1-c1cc(=O)n(Cc2cccc(-c3nc(=O)o[nH]3)c2)c(C)n1 [Compound I-0378] | < 10 nM |
| COC(=O)Nc1cc(Cl)ccc1-c1cc(=O)n(Cc2cccc(-c3nc(=O)o[nH]3)c2)c(C)n1 [Compound I-0379] | < 10 nM |
| CNC(=O)NC1CCN(C(=O)Cn2c(C)nc(-c3ccc(C#N)cc3NC(=O)OC)cc2=O)CC1 [Compound I-0381] | 10 to 100 nM |
| CCCCCc1nc(-c2ccc(Cl)cc2)cc(=O)n1CC(=O)N1CCC(c2nc(=O)o[nH]2)CC1 [Compound I-0382] | 10 to 100 nM |
| CNC(=O)NC1CCN(C(=O)Cn2c(C)nc(-c3ccc(Cl)cc3NC(=O)OC)cc2=O)CC1 [Compound I-0383] | 10 to 100 nM |
| Cc1nc(-c2ccc(C#N)cc2NC(=O)C(C)(C)C)cc(=O)n1CC(=O)NC1(c2nc(=O)o[nH]2)CC1 [Compound I-0385] | 10 to 100 nM |
| Cc1nc(-c2ccc(Cl)cc2NC(=O)C(C)(C)C)cc(=O)n1CC(=O)NC1(c2nc(=O)o[nH]2)CC1 [Compound I-0386] | 10 to 100 nM |
| O=C(Cn1c(CCCC(F)(F)F)nc(-c2ccc(C(F)(F)F)cc2)cc1=O)NC1(c2nc(=O)o[nH]2)CC1 [Compound I-0387] | 10 to 100 nM |
| CC(C)(C)OC(=O)Cn1cnc(-c2ccc(Cl)cc2)cc1=O [Compound I-0388] | ≥ 1000 nM |
| O=C(Cn1cnc(-c2ccc(Cl)cc2)cc1=O)NC(Cc1ccccc1)C(=O)O (stereo not drawn) [Compound I-0396] | ≥ 1000 nM |
| COC(=O)Nc1cc(C#N)ccc1-c1cc(=O)n(CC(=O)N2CC(C)(O)C2)c(C)n1 [Compound I-0398] | 100 to 1000 nM |
| COC(=O)Nc1cc(C#N)ccc1-c1cc(=O)n(CC(=O)NCC(C)(C)O)c(C)n1 [Compound I-0399] | 10 to 100 nM |
| COC(=O)Nc1cc(C#N)ccc1-c1cc(=O)n(CC(=O)NC(C)(C)CO)c(C)n1 [Compound I-0400] | 10 to 100 nM |
| O=C(Cn1cnc(-c2ccc(Cl)cc2)cc1=O)NCCCNC(=O)c1cn[nH]n1 [Compound I-0402] | ≥ 1000 nM |
| Cc1nc(-c2ccc(Cl)cc2NC(=O)C2CC2)cc(=O)n1CC(=O)NC1COC1 [Compound I-0404] | 10 to 100 nM |
| Cc1nc(-c2ccc(Cl)cc2NC(=O)C2CC2)cc(=O)n1CC(=O)NCC(N)=O [Compound I-0406] | 10 to 100 nM |
| CC(C)(C)NC(=O)Cn1cnc(-c2ccc(Cl)cc2NC(=O)C(C)(C)C)cc1=O [Compound I-0407] | 10 to 100 nM |
| Cc1nc(-c2ccc(Cl)cc2NC(=O)C2CC2)cc(=O)n1CC(=O)N1CC(F)C1 [Compound I-0408] | 100 to 1000 nM |
| CC(C)(C)C(=O)Nc1cc(Cl)ccc1-c1cc(=O)n(CC(=O)NCC(N)=O)cn1 [Compound I-0409] | 100 to 1000 nM |
| COC(=O)Nc1cc(C#N)ccc1-c1cc(=O)n(CC(=O)NCc2c[nH]nn2)c(C)n1 [Compound I-0414] | < 10 nM |
| COC(=O)Nc1cc(C#N)ccc1-c1cc(=O)n(CC(=O)N2CCC(O)CC2)c(C)n1 [Compound I-0418] | 10 to 100 nM |
| Cc1nc(-c2ccc(Cl)cc2NC(=O)C2CC2)cc(=O)n1CC(=O)N1CC(C)(O)C1 [Compound I-0420] | 100 to 1000 nM |

Next, values leading:

| IC50 | SMILES |
| --- | --- |
| < 10 nM | COC(=O)Nc1cc(Cl)ccc1-c1cc(=O)n(CC(=O)OC(C)(C)C#N)c(C)n1 [Compound I-0375] |
| 10 to 100 nM | Cc1nc(-c2ccc(Cl)cc2NC(=O)C(C)(C)C)cc(=O)n1CC(=O)NC1(C#N)CC1 [Compound I-0376] |
| 10 to 100 nM | Cc1nc(-c2ccc(Cl)cc2NC(=O)C(C)(C)C)cc(=O)n1CC(=O)NC1(C(=N)NO)CC1 [Compound I-0380] |
| ≥ 1000 nM | COC(=O)Nc1cc(Cl)ccc1-c1cc(=O)n(CC(=O)N2C(C)(C)CC(O)CC2(C)C)c(C)n1 [Compound I-0384] |
| 10 to 100 nM | COC(=O)Nc1cc(C#N)ccc1-c1cc(=O)n(CC(=O)NC(C)C)c(C)n1 [Compound I-0389] |
| 10 to 100 nM | COC(=O)Nc1cc(Cl)ccc1-c1cc(=O)n(CC(=O)NC(C)C)c(C)n1 [Compound I-0390] |
| 10 to 100 nM | Cc1nc(-c2ccc(Cl)cc2NC(=O)C2CC2)cc(=O)n1CC(=O)NC(C)C [Compound I-0391] |
| 10 to 100 nM | COC(=O)Nc1cc(Cl)ccc1-c1cc(=O)n(CC(=O)NC2(C)CC2)c(C)n1 [Compound I-0392] |
| 10 to 100 nM | COC(=O)Nc1cc(Cl)ccc1-c1cc(=O)n(CC(=O)NC2COC2)c(C)n1 [Compound I-0393] |
| < 10 nM | COC(=O)Nc1cc(C#N)ccc1-c1cc(=O)n(CC(=O)NC2(C#N)CC2)c(C)n1 [Compound I-0394] |
| 100 to 1000 nM | COC(=O)Nc1cc(Cl)ccc1-c1cc(=O)n(CC(=O)N2CC(F)C2)c(C)n1 [Compound I-0395] |
| 10 to 100 nM | COC(=O)Nc1cc(C#N)ccc1-c1cc(=O)n(CC(=O)NC2(C)COC2)c(C)n1 [Compound I-0397] |
| 10 to 100 nM | Cc1nc(-c2ccc(Cl)cc2NC(=O)C2CC2)cc(=O)n1CC(=O)NC1(C)CC1 [Compound I-0401] |
| 10 to 100 nM | COC(=O)Nc1cc(Cl)ccc1-c1cc(=O)n(CC(=O)NC2(C#N)CC2)c(C)n1 [Compound I-0403] |
| 10 to 100 nM | Cc1nc(-c2ccc(Cl)cc2NC(=O)C2CC2)cc(=O)n1CC(=O)NC(C)(C)C [Compound I-0405] |
| < 10 nM | COC(=O)Nc1cc(Cl)ccc1-c1cc(=O)n(CC(=O)NC2(C)COC2)c(C)n1 [Compound I-0410] |
| 100 to 1000 nM | COC(=O)Nc1cc(Cl)ccc1-c1cc(=O)n(CC(=O)N2CC(C)(O)C2)c(C)n1 [Compound I-0411] |
| < 10 nM | COC(=O)Nc1cc(Cl)ccc1-c1cc(=O)n(CC(=O)NC(C)(C)CO)c(C)n1 [Compound I-0412] |
| 10 to 100 nM | COC(=O)Nc1cc(Cl)ccc1-c1cc(=O)n(CC(=O)NCC(C)(C)O)c(C)n1 [Compound I-0413] |
| < 10 nM | COC(=O)Nc1cc(Cl)ccc1-c1cc(=O)n(CC(=O)NC(C)(C)CF)c(C)n1 [Compound I-0415] |
| 10 to 100 nM | Cc1nc(-c2ccc(Cl)cc2NC(=O)C2CC2)cc(=O)n1CC(=O)NC1(C#N)CC1 [Compound I-0416] |
| 10 to 100 nM | COC(=O)Nc1cc(C#N)ccc1-c1cc(=O)n(CC(=O)NCC2(CO)CC2)c(C)n1 [Compound I-0417] |
| 10 to 100 nM | Cc1nc(-c2ccc(Cl)cc2NC(=O)C2CC2)cc(=O)n1CC(=O)NC1(C)COC1 [Compound I-0419] |
| < 10 nM | COC(=O)Nc1cc(Cl)ccc1-c1cc(=O)n(CC(=O)NCc2c[nH]nn2)c(C)n1 [Compound I-0421] |
